Test results taken from US20110092367A1, “Herbicidal Compositions Comprising 4-amino-3,6-dichloropyridine-2-carboxylic Acid” (BASF SE, priority 2008, published 2011).

Tests used:
Type in all cases: in vivo
Galium aparine = test: Field trial Example 1, successive application: damage on GALAP
From the text: (§1) Aminiopyralid was used as commercial aquaeous solution having an active ingredient concentration of 240 g/l (Milestone™). Metazachlor was used as a commercial suspension concentrate having an active ingredient concentration of 500 g/l (Butisan S®).
(§2) The performance of aminopyralid applied as an alone treatment at 15, 30 and 50 g a.i./ha applied as an early post emergence treatment and an post emergence treatment in comparison to two different applications including metazachlor at 500 g a.i./ha as an early post emergence application in succession of aminopyralid as a post emergence application at 15 and 30 g a.i./ha was assessed in an oilseed rape field trials.
(§3) The early post emergence treatment was applied by means of fine distributed nozzles at the growth stage (GS) of the crop BBCH 11-12.
(§4) The post emergence treatment was applied by means of fine distributed nozzles at the growth stage (GS) of the crop BBCH 13-14.
(§5) The test period extended over the autumn and spring season (205 days).
(§6) In the following experiments, the herbicidal activity for the individual herbicide compounds (solo application) and of the herbicidal succession was assessed 4 times:
(§7) The evaluation for the damage on undesired weeds caused by the chemical compositions was carried out using a scale from 0 to 100%, compared to the untreated control plants. Here, 0 means no damage and 100 means complete destruction of the plants.

Papaver rhoeas = test: Greenhouse trial, post-emergence: PAPRH; conditions: aminopyralid 10 g ai/ha solo
Procedure: The test plants have been seeded, separately for each species, in plastic containers in sandy loamy soil containing 5% organic matter.
For the post emergence treatment, the plants were first grown to the 2 leaf station (GS 12). Here, the herbicidal compositions were suspended or emulsified in water as distribution medium and sprayed using finely distributing nozzels.
The plants have been cultivated due to there individual requirements at 10-25° C. and 20-35° C. The plants were irrigated due to there necessity. […]
as §7
Calculation of expected activity of binary mixtures was done by using the Colby-Formula according to Example 1.

Geranium pusillum = test: Field trial Example 1, successive application: damage on GERPU
From the text: as §1, §2, §3, §4, §5, §6, §7

[1] = 15 g ai/ha, treatment B post emergence, DAT 176/DALT 161
[2] = 30 g ai/ha, treatment A early post emergence, DAT 25/DALT 10
[3] = 30 g ai/ha, treatment A early post emergence, DAT 65/DALT 50
[4] = 30 g ai/ha, treatment A early post emergence, DAT 176/DALT 161
[5] = 30 g ai/ha, treatment B post emergence, DAT 25/DALT 10
[6] = 30 g ai/ha, treatment B post emergence, DAT 65/DALT 50
[7] = 30 g ai/ha, treatment B post emergence, DAT 176/DALT 161
[8] = 50 g ai/ha, treatment A early post emergence, DAT 25/DALT 10
[9] = 50 g ai/ha, treatment A early post emergence, DAT 65/DALT 50
[10] = 50 g ai/ha, treatment A early post emergence, DAT 176/DALT 161
[11] = 50 g ai/ha, treatment B post emergence, DAT 25/DALT 10
[12] = 50 g ai/ha, treatment B post emergence, DAT 65/DALT 50
[13] = 50 g ai/ha, treatment B post emergence, DAT 176/DALT 161
[14] = aminopyralid 15 g ai/ha, treatment A, DAT 205/DALT 190
[15] = aminopyralid 15 g ai/ha, treatment B, DAT 205/DALT 190
[16] = aminopyralid 30 g ai/ha, treatment A, DAT 205/DALT 190
[17] = aminopyralid 30 g ai/ha, treatment B, DAT 205/DALT 190
[18] = aminopyralid 50 g ai/ha, treatment A, DAT 205/DALT 190
[19] = aminopyralid 50 g ai/ha, treatment B, DAT 205/DALT 190

Nc1cc(Cl)nc(C(=O)O)c1Cl [aminopyralid, 4-amino-3,6-dichloropyridine-2-carboxylic acid]
damage on GALAP (Galium aparine; [1]): 82% | damage on GALAP (Galium aparine; [2]): 92% | damage on GALAP (Galium aparine; [3]): 96% | damage on GALAP (Galium aparine; [4]): 96% | damage on GALAP (Galium aparine; [5]): 72% | damage on GALAP (Galium aparine; [6]): 78% | damage on GALAP (Galium aparine; [7]): 86% | damage on GALAP (Galium aparine; [8]): 99% | damage on GALAP (Galium aparine; [9]): 99% | damage on GALAP (Galium aparine; [10]): 100% | damage on GALAP (Galium aparine; [11]): 87% | damage on GALAP (Galium aparine; [12]): 87% | damage on GALAP (Galium aparine; [13]): 89% | damage on GALAP (Galium aparine; [14]): 88% | damage on GALAP (Galium aparine; [15]): 87% | damage on GALAP (Galium aparine; [16]): 93% | damage on GALAP (Galium aparine; [17]): 91% | damage on GALAP (Galium aparine; [18]): 100% | damage on GALAP (Galium aparine; [19]): 93% | % activity 28 DAT (Papaver rhoeas; post-emergence (Table 10)): 95% | % activity 28 DAT (Papaver rhoeas; post-emergence (Tables 7-9)): 35% | damage on GERPU (Geranium pusillum; 15 g ai/ha, treatment A early post emergence, DAT 25/DALT 10): 57% | damage on GERPU (Geranium pusillum; 15 g ai/ha, treatment A early post emergence, DAT 65/DALT 50): 72% | damage on GERPU (Geranium pusillum; 15 g ai/ha, treatment A early post emergence, DAT 176/DALT 161): 78% | damage on GERPU (Geranium pusillum; 15 g ai/ha, treatment B post emergence, DAT 25/DALT 10): 75% | damage on GERPU (Geranium pusillum; 15 g ai/ha, treatment B post emergence, DAT 65/DALT 50): 68% | damage on GERPU (Geranium pusillum; [1]): 75% | damage on GERPU (Geranium pusillum; [2]): 92% | damage on GERPU (Geranium pusillum; [3]): 90% | damage on GERPU (Geranium pusillum; [4]): 95% | damage on GERPU (Geranium pusillum; [5]): 78% | damage on GERPU (Geranium pusillum; [6]): 82% | damage on GERPU (Geranium pusillum; [7]): 93% | damage on GERPU (Geranium pusillum; [8]): 98% | damage on GERPU (Geranium pusillum; [9]): 98% | damage on GERPU (Geranium pusillum; [10]): 97% | damage on GERPU (Geranium pusillum; [11]): 78% | damage on GERPU (Geranium pusillum; [12]): 83% | damage on GERPU (Geranium pusillum; [13]): 97% | damage on GERPU (Geranium pusillum; [14]): 73% | damage on GERPU (Geranium pusillum; [15]): 73% | damage on GERPU (Geranium pusillum; [16]): 99% | damage on GERPU (Geranium pusillum; [17]): 96% | damage on GERPU (Geranium pusillum; [18]): 98% | damage on GERPU (Geranium pusillum; [19]): 98%
